Laboratory results as given in US11912701B2, “Protein kinase inhibitors for promoting liver regeneration or reducing or preventing hepatocyte death” (HEPAREGENIX GMBH, priority 2018, dated 2024).

Key:
MKK4 [1] = target: T1, MKK4 (Homo sapiens, UniProt P45985); test: 33PanQinase enzyme assay, MKK4; format: biochemical; conditions: assay 'IC50'; read-out: Potency MKK4 (IC50)
T1 construct: purchased ProQinase GmbH, Freiburg, Germany (33PanQinase Assay Service)
T1 sequence (P45985 1-399): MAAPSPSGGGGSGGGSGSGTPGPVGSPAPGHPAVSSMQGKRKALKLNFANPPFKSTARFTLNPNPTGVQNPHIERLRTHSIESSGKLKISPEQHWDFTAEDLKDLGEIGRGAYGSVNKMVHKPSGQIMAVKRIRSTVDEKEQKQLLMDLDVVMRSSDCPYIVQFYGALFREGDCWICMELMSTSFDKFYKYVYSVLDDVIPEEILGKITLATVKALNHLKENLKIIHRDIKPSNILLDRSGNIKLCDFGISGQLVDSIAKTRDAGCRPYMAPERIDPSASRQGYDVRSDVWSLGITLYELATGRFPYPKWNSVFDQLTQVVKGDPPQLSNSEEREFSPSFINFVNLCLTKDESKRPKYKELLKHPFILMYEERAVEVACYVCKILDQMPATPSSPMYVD
How it was run: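 Inhibition measured as 33Pi transfer to substrate after a 60-min, 30 °C reaction, acid-stopped and scintillation-counted.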

JNK1 [2] = target: T2, JNK1 (Homo sapiens, UniProt P45983); test: 33PanQinase enzyme assay, JNK1; format: biochemical; design: purchased ProQinase GmbH, Freiburg, Germany (33PanQinase Assay Service); conditions: ratio IC50(JNK1)/IC50(MKK4)
How it was run: (§1)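 33Pi incorporation, read by microplate scintillation counting, measured kinase activity after 60 min at 30 °C. Reactions were quenched with 2% (v/v) H3PO4 and washed with 0.9% NaCl. IC50 derived by least-squares fitting; single doses reported as % residual activity.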
Target sequence in this assay (P45983 whole entry): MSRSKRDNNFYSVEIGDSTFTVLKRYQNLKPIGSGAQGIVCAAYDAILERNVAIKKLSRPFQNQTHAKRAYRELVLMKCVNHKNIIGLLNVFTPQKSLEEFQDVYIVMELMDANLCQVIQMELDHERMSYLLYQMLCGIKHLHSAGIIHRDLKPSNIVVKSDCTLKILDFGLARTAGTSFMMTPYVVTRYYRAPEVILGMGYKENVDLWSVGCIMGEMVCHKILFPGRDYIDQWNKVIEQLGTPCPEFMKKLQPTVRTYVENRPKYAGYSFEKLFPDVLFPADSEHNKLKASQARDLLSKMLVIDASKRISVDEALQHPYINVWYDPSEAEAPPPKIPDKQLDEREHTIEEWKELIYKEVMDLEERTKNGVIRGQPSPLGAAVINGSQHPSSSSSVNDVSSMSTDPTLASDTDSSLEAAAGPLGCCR

MKK7 [3] = target: T3, MKK7 (Homo sapiens, UniProt O14733); test: KINOMEscan competition binding assay, MKK7; design: M1/R419; host or cells: HEK-293; conditions: ratio PoC (off-target)/PoC (MKK4)
T3 sequence (O14733 1-419): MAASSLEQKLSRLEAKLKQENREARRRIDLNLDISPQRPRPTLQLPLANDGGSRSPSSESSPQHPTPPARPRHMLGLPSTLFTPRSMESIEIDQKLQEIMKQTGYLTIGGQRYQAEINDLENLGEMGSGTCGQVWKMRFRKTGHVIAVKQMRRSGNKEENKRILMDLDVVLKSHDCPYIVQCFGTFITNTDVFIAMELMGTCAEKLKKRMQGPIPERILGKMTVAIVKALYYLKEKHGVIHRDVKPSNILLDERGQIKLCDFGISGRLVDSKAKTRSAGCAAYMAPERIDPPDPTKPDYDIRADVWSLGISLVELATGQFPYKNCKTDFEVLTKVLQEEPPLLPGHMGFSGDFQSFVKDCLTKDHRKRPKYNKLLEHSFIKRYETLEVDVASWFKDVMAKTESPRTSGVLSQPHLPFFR
How it was run: (§2)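 DNA-tagged kinases expressed in HEK-293 cells compete between immobilized ligand on blocked beads and test compound at 100 nM; kinase retained on beads quantified by qPCR of the tag.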

JNK1 [4] = target: T2, JNK1; test: KINOMEscan competition binding assay, JNK1; design: M1/Q384; host or cells: HEK-293; conditions: ratio PoC (off-target)/PoC (MKK4)
How it was run: as §2
Target sequence in this assay (P45983 1-384 isoform P45983-2): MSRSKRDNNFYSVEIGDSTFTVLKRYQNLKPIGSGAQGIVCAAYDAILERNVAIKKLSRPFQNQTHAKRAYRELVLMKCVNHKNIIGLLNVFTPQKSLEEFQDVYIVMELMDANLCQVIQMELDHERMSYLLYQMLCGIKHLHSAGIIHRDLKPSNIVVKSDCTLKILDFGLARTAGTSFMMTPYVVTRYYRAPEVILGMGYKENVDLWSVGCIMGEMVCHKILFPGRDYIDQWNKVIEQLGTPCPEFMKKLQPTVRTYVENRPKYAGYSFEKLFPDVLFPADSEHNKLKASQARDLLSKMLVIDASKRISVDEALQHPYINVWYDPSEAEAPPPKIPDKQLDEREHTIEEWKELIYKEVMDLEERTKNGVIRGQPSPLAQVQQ

BRaf = target: T4, BRaf (Homo sapiens, UniProt P15056); test: KINOMEscan competition binding assay, BRaf; conditions: ratio PoC (off-target)/PoC (MKK4)
T4 construct: purchased ProQinase GmbH, Freiburg, Germany (33PanQinase Assay Service)
How it was run: as §2

MKK7 [5] = target: T3, MKK7; test: 33PanQinase enzyme assay, MKK7; format: biochemical; design: purchased ProQinase GmbH, Freiburg, Germany (33PanQinase Assay Service); conditions: ratio IC50(MKK7)/IC50(MKK4)
How it was run: as §1

MKK4 [6] = target: T5, MKK4 (Homo sapiens, UniProt P45985); test: KINOMEscan competition binding assay, MKK4; conditions: residual percent of control binding (PoC) at 100 nM
T5 construct: S84/D399; host or cells: HEK-293
T5 sequence (P45985 84-399): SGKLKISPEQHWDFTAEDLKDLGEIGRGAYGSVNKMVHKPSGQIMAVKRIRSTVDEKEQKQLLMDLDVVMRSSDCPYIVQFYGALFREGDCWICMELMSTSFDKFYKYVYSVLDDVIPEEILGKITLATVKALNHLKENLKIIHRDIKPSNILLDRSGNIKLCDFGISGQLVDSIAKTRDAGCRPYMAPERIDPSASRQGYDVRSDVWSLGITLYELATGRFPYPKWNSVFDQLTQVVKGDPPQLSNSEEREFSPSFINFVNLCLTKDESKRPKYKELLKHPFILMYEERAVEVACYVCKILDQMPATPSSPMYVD
How it was run: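 Tested at 100 nM and reported as percent of control binding (PoC). MKK4 was produced in HEK-293 cells and DNA-tagged. Displacement from ligand-coated, blocked beads was read by qPCR of eluted kinase.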

T4 sequence (P15056 whole entry, species assumed): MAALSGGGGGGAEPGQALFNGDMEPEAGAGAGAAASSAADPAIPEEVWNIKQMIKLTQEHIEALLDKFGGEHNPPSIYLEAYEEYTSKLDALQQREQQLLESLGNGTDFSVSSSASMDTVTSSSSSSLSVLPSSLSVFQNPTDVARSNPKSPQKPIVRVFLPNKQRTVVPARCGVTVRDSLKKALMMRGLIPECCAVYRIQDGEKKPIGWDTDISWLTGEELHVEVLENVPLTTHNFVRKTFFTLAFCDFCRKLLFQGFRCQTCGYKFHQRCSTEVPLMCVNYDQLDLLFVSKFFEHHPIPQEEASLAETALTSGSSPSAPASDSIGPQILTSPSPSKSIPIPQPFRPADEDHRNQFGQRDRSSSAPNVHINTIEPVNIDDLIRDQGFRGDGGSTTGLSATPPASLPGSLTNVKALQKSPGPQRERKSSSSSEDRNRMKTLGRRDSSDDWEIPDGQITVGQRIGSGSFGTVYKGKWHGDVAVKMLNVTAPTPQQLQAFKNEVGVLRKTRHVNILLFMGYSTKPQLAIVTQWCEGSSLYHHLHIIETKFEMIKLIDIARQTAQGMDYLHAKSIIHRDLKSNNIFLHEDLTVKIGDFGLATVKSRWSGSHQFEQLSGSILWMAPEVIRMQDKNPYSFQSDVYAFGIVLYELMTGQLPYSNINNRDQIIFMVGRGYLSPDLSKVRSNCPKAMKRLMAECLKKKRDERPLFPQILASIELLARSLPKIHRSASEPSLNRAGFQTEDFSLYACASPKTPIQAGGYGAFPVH

IC50 (MKK4 [1]) [nM] | Selectivity JNK1, IC50(off-target)/IC50(MKK4) (JNK1 [2]) | selectivity based on % Ctrl @100 nM vs. MKK7 (MKK7 [3]) | selectivity based on % Ctrl @100 nM vs. JNK1 (JNK1 [4]) | selectivity based on % Ctrl @100 nM vs. Braf (BRaf) | MKK4 [% Ctrl @ 100 nM (MKK4 [6]) | SMILES | Selectivity IVIKK7, IC50(off-target)/IC50(MKK4) (MKK7 [5])
100 to 1000 | ◯ (3 ≥ IC50(off-target)/IC50(MKK4)) | +++ (Ratio > 100) | +++ (Ratio > 100) | ++ (100 ≥ ratio > 10) | +++ (PoC < 1) | CCCS(=O)(=O)Nc1ccc(F)c(C(=O)c2c[nH]c3ncc(C4CCC4)cc23)c1F [Example 123, N-(3-(5-cyclobutyl-1-pyrrolo[2,3-b]pyridine-3-carbonyl)-2,4-difluorophenyl)propane-1-sulfonamide] | +++ (IC50(off-target)/IC50(MKK4) > 100)
1000 to 10000 | ◯ (3 ≥ IC50(off-target)/IC50(MKK4)) | ++ (100 ≥ ratio > 10) | ++ (100 ≥ ratio > 10) | ◯ (3 ≥ Ratio) | + (3 ≤ PoC < 30) | CCCS(=O)(=O)Nc1ccc(F)c(C(=O)c2c[nH]c3ncc(-c4nc[nH]n4)cc23)c1F [Example 85, N-(3-(5-(1H-1,2,4-triazol-3-yl)-1H-pyrrolo[2,3-b]pyridine-3-carbonyl)-2,4-difluorophenyl)propane-1-sulfonamide] | ++ (100 ≥ IC50(off-target)/IC50(MKK4) > 10)
100 to 1000 | ◯ (3 ≥ IC50(off-target)/IC50(MKK4)) | +++ (Ratio > 100) | +++ (Ratio > 100) | ++ (100 ≥ ratio > 10) | +++ (PoC < 1) | CCCS(=O)(=O)Nc1ccc(F)c(C(=O)c2c[nH]c3ncc(-c4cccnc4)cc23)c1F [Example 58] | ++ (100 ≥ IC50(off-target)/IC50(MKK4) > 10)
1000 to 10000 | ◯ (3 ≥ IC50(off-target)/IC50(MKK4)) | ++ (100 ≥ ratio > 10) | ++ (100 ≥ ratio > 10) | ◯ (3 ≥ Ratio) | + (3 ≤ PoC < 30) | CCCS(=O)(=O)Nc1ccc(F)c(C(=O)c2c[nH]c3ncc(-c4nncs4)cc23)c1F [Example 86, N-(3-(5-(1,3,4-thiadiazol-2-yl)-1H-pyrrolo[2,3-b]pyridine-3-carbonyl)-2,4-difluorophenyl)propane-1-sulfonamide] | ++ (100 ≥ IC50(off-target)/IC50(MKK4) > 10)
1000 to 10000 | ◯ (3 ≥ IC50(off-target)/IC50(MKK4)) | + (10 ≥ ratio > 3) | + (10 ≥ ratio > 3) | ◯ (3 ≥ Ratio) | + (3 ≤ PoC < 30) | CCCS(=O)(=O)Nc1ccc(F)c(C(=O)c2c[nH]c3ncc(C4CCNCC4)cc23)c1F [Example 241, N-(2,4-difluoro-3-(5-(piperidin-4-yl)-1-pyrrolo[2,3-b]pyridine-3-carbonyl)phenyl)propane-1-sulfonamide] | + (10 ≥ IC50(off-target)/IC50(MKK4) > 3)
100 to 1000 | ◯ (3 ≥ IC50(off-target)/IC50(MKK4)) | +++ (Ratio > 100) | +++ (Ratio > 100) | ◯ (3 ≥ Ratio) | +++ (PoC < 1) | CCCS(=O)(=O)Nc1ccc(F)c(C(=O)c2c[nH]c3ncc(-c4ccn[nH]4)cc23)c1F [Example 84, N-(3-(5-(1H-pyrazol-5-yl)-1H-pyrrolo[2,3-b]pyridine-3-carbonyl)-2,4-difluorophenyl)propane-1-sulfonamide] | +++ (IC50(off-target)/IC50(MKK4) > 100)
< 100 | +++ (IC50(off-target)/IC50(MKK4) > 100) | +++ (Ratio > 100) | +++ (Ratio > 100) | +++ (Ratio > 100) | +++ (PoC < 1) | CN(C)c1ncc(-c2cnc3[nH]cc(C(=O)c4ccc(F)c(NS(=O)(=O)CCC(F)(F)F)c4F)c3c2)cn1 [Example 178, N-(3-(5-(2-(dimethylamino)pyrimidin-5-yl)-1H-pyrrolo[2,3-b]pyridine-3-carbonyl)-2,6-difluorophenyl)-3,3,3-trifluoropropane-1-sulfonamide] | +++ (IC50(off-target)/IC50(MKK4) > 100)
< 100 | +++ (IC50(off-target)/IC50(MKK4) > 100) | +++ (Ratio > 100) | +++ (Ratio > 100) | +++ (Ratio > 100) | +++ (PoC < 1) | CS(=O)(=O)Nc1c(F)ccc(C(=O)c2c[nH]c3ncc(-c4ccncc4)cc23)c1F [Example 234, N-(2,6-difluoro-3-(5-(pyridin-4-yl)-1H-pyrrolo[2,3-b]pyridine-3-carbonyl)phenyl)methanesulfonamide] | +++ (IC50(off-target)/IC50(MKK4) > 100)

SMILES | IC50 (MKK4 [1]) [nM] | Selectivity JNK1, IC50(off-target)/IC50(MKK4) (JNK1 [2]) | selectivity based on % Ctrl @100 nM vs. MKK7 (MKK7 [3]) | selectivity based on % Ctrl @100 nM vs. JNK1 (JNK1 [4]) | selectivity based on % Ctrl @100 nM vs. Braf (BRaf) | MKK4 [% Ctrl @ 100 nM (MKK4 [6]) | Selectivity IVIKK7, IC50(off-target)/IC50(MKK4) (MKK7 [5])
CCCS(=O)(=O)Nc1ccc(F)c(C(=O)c2c[nH]c3ncc(C4=CCNCC4)cc23)c1F [Example 242] | > 10000 | ◯ (3 ≥ IC50(off-target)/IC50(MKK4)) | + (10 ≥ ratio > 3) | + (10 ≥ ratio > 3) | ◯ (3 ≥ Ratio) | + (3 ≤ PoC < 30) | ++ (100 ≥ IC50(off-target)/IC50(MKK4) > 10)
CCCS(=O)(=O)Nc1ccc(F)c(C(=O)c2c[nH]c3ncc(-c4ccnnc4)cc23)c1F [Example 49] | 1000 to 10000 | ++ (100 ≥ IC50(off-target)/IC50(MKK4) > 10) | +++ (Ratio > 100) | +++ (Ratio > 100) | ◯ (3 ≥ Ratio) | +++ (PoC < 1) | ++ (100 ≥ IC50(off-target)/IC50(MKK4) > 10)
CS(=O)(=O)Nc1c(F)ccc(C(=O)c2c[nH]c3ncc(-c4cccnc4)cc23)c1F [Example 228, N-(2,6-difluoro-3-(5-(pyridin-3-yl)-1H-pyrrolo[2,3-b]pyridine-3-carbonyl)phenyl)methanesulfonamide] | 100 to 1000 | ++ (100 ≥ IC50(off-target)/IC50(MKK4) > 10) | +++ (Ratio > 100) | +++ (Ratio > 100) | +++ (Ratio > 100) | +++ (PoC < 1) | ++ (100 ≥ IC50(off-target)/IC50(MKK4) > 10)
